Legend:
Format in all cases: in vivo
Phakopsora pachyrhizi = assay: Greenhouse experiments, control of soybean rust on soybean, foliar spray; conditions: Halo methylene benzonorbornene amide 1 gai/ha
Description: Control of Phakopsora pachyrhizi on Soybean
Greenhouse experiments were conducted to evaluate the ability of cis-jasmone to enhance fungicidal activity of a single agrochemical active ingredient and also of a mixture of two agrochemical active ingredients. A fungicidally active ingredient, N-[(1RS,4SR)-9-(Dichloromethylidene)-1,2,3,4-tetrahydro-1,4-methanonaphthalen-5-yl]-3-(difluoromethyl)-1-methyl-1H-pyrazole-4-carboxamide (“halo methylene benzonorbornene amide”), alone or in admixture with another fungicidally active ingredient, azoxystrobin, controls soybean rust when applied as a foliar spray. See data in Table 7.

[1] = tested on: Currant-Lettuce Aphid Nasonova ribis-nigri; assay: Field trial, control of currant-lettuce aphid on lettuce (Example 2); conditions: 1 foliar spray; for Average Number of Aphids per Plant: apterous aphids
Description: (§1) Control of Currant-Lettuce Aphid Nasonova ribis-nigri on Lettuce
A field trial using plots of 20 plants, 3 replicates and 1 foliar spray was assessed for number of apterous aphids/plant and number of infected plants on Day 4, Day 8, Day 11 and Day 14 after treatment. Data for untreated control are an average of four control plots (each 3 replicates; 240 total plants) which were interspersed within the treated plots.

Aphid Aphis gossypii [2] = assay: Field trial, control of aphid on cotton (Example 6); conditions: 1 foliar spray, 8 evaluation dates from Day 3 to Day 29
Description: (§2) Control of Aphid Aphis gossypii on Cotton
A field trial using plots of 20 plants, 3 replicates and 1 foliar spray was assessed for number of alate and apterous aphids/plant from 8 evaluation dates from Day 3 to Day 29 after treatment. Data for untreated control are an average of four control plots (each 3 replicates; 240 total plants) which were interspersed within the treated plots.

Aphid Aphis gossypii [3] = assay: Field trial, control of aphid on cotton (Example 5); conditions: for Average Number of Aphids per Plant: 1 foliar spray, apterous adults; for average number of aphids per plant observed across all days monitored: Day 1 to Day 22
Description: as §2
A field trial using 21 m^2 plots, 3 replicates and 1 foliar spray was assessed for number of apterous adults/plant on Day 1, Day 3, Day 5, Day 8, Day 10, Day 15, and Day 22 after treatment. Data for untreated control are an average of four control plots.

Thrips Thrips Tabaci = assay: Field trial, control of thrips on cotton; conditions: for Average Number of Thrips per Plant: 1 foliar spray, adult thrips; for average number of thrips per plant observed across all days monitored: Day 1 to Day 22
Description: Control of Thrips Thrips Tabaci on Cotton
A field trial using 21 m^2 plots, 3 replicates and 1 foliar spray was assessed for number of adult thrips/plant on Day 1, Day 3, Day 5, Day 8, Day 10, Day 15, and Day 22 after treatment. Data for untreated control are an average of four control plots.

[4] = tested on: Two Spotted Spider Mite Tetranychus urticae; assay: Field trial, control of two spotted spider mite on kidney beans; conditions: 2 foliar sprays at 10 day intervals, 11 evaluation dates Day 3 to Day 35
Description: Control of Two Spotted Spider Mite Tetranychus urticae on Kidney Beans
A field trial using a plot size of 20 m^2, 3 replicates and 2 foliar sprays at 500 I/ha at 10 day intervals was assessed for average mite population/20 leaves/plot from 11 evaluation dates from Day 3 to Day 35 after treatment.

[5] = tested on: Currant-Lettuce Aphid Nasonova ribis-nigri; assay: Field trial, control of currant-lettuce aphid on lettuce (Example 3); conditions: 1 foliar spray, apterous aphids
Description: as §1
A field trial using plots of 20 plants, 4 replicates and 1 foliar spray was assessed for number of apterous aphids/plant on Day 3, Day 7 and Day 10 after treatment.

[6] = Cis-jasmone 50 gai/hl, Day 4 after treatment
[7] = Cis-jasmone 50 gai/hl, Day 8 after treatment
[8] = Cis-jasmone 50 gai/hl, Day 11 after treatment
[9] = Cis-jasmone 50 gai/hl, Day 14 after treatment
[10] = Cis-jasmone 50 gai/hl, Day 1 after treatment
[11] = Cis-jasmone 50 gai/hl, Day 3 after treatment
[12] = Cis-jasmone 50 gai/hl, Day 5 after treatment
[13] = Cis-jasmone 50 gai/hl, Day 10 after treatment
[14] = Cis-jasmone 50 gai/hl, Day 15 after treatment
[15] = Cis-jasmone 50 gai/hl, Day 22 after treatment
[16] = Thiamethoxam 30 gai/hl, Day 4 after treatment
[17] = Thiamethoxam 30 gai/hl, Day 8 after treatment
[18] = Thiamethoxam 30 gai/hl, Day 11 after treatment
[19] = Thiamethoxam 30 gai/hl, Day 14 after treatment
[20] = Thiamethoxam 30 gai/hl, Day 1 after treatment
[21] = Thiamethoxam 30 gai/hl, Day 3 after treatment
[22] = Thiamethoxam 30 gai/hl, Day 5 after treatment
[23] = Thiamethoxam 30 gai/hl, Day 10 after treatment
[24] = Thiamethoxam 30 gai/hl, Day 15 after treatment
[25] = Thiamethoxam 30 gai/hl, Day 22 after treatment

Cn1cc(C(=O)Nc2cccc3c2[C@@H]2CC[C@H]3C2=C(Cl)Cl)c(C(F)F)n1 (racemic) [Halo methylene benzonorbornene amide, N-[(1RS,4SR)-9-(Dichloromethylidene)-1,2,3,4-tetrahydro-1,4-methanonaphthalen-5-yl]-3-(difluoromethyl)-1-methyl-1H-pyrazole-4-carboxamide]
Percentage Fungicidal Activity (Phakopsora pachyrhizi): 20%

CC/C=C\CC1=C(C)CCC1=O [Cis-jasmone, cis-jasmone]
Number of Infested Plants (out of 60) [1, 6]: 21
Average Number of Aphids per Plant [1, 6]: 0.57
Number of Infested Plants (out of 60) [1, 7]: 48
Average Number of Aphids per Plant [1, 7]: 3.28
Number of Infested Plants (out of 60) [1, 8]: 59
Average Number of Aphids per Plant [1, 8]: 8.02
Number of Infested Plants (out of 60) [1, 9]: 60
Average Number of Aphids per Plant [1, 9]: 19.25
Average Number of Aphids/Plant, Alate (Aphid Aphis gossypii [2]; Cis-Jasmone 50 gai/hl): 18
Average Number of Aphids/Plant, Apterous (Aphid Aphis gossypii [2]; Cis-Jasmone 50 gai/hl): 260
Average Number of Aphids per Plant (Aphid Aphis gossypii [3]; [10]): 40
average number of aphids per plant observed across all days monitored (Aphid Aphis gossypii [3]; Cis-jasmone 50 gai/hl): 61
Average Number of Aphids per Plant (Aphid Aphis gossypii [3]; [11]): 33
Average Number of Aphids per Plant (Aphid Aphis gossypii [3]; [12]): 45
Average Number of Aphids per Plant (Aphid Aphis gossypii [3]; [7]): 126
Average Number of Aphids per Plant (Aphid Aphis gossypii [3]; [13]): 139
Average Number of Aphids per Plant (Aphid Aphis gossypii [3]; [14]): 27
Average Number of Aphids per Plant (Aphid Aphis gossypii [3]; [15]): 14
Average Number of Thrips per Plant (Thrips Thrips Tabaci; [10]): 24
average number of thrips per plant observed across all days monitored (Thrips Thrips Tabaci; Cis-jasmone 50 gai/hl): 39
Average Number of Thrips per Plant (Thrips Thrips Tabaci; [11]): 19
Average Number of Thrips per Plant (Thrips Thrips Tabaci; [12]): 28
Average Number of Thrips per Plant (Thrips Thrips Tabaci; [7]): 48
Average Number of Thrips per Plant (Thrips Thrips Tabaci; [13]): 58
Average Number of Thrips per Plant (Thrips Thrips Tabaci; [14]): 65
Average Number of Thrips per Plant (Thrips Thrips Tabaci; [15]): 32
% pest control versus untreated check ([4]; Cis-jasmone 5 gai/hl, mite population/20 leaves/plot): 51.00%
Average Number of Aphids per Plant ([5]; Cis-jasmone at 100 gai/hl, Day 3 after treatment): 2.963
Average Number of Aphids per Plant ([5]; Cis-jasmone at 100 gai/hl, Day 7 after treatment): 6.563
Average Number of Aphids per Plant ([5]; Cis-jasmone at 100 gai/hl, Day 10 after treatment): 12.375

CNC(=O)c1cc(C#N)cc(C)c1NC(=O)c1cc(Br)nn1-c1ncccc1Cl [Cyantraniliprole, cyantraniliprole]
Average Number of Aphids/Plant, Alate (Aphid Aphis gossypii [2]; Cyantraniliprole 100 gai/hl): 17
Average Number of Aphids/Plant, Apterous (Aphid Aphis gossypii [2]; Cyantraniliprole 100 gai/hl): 235
Average Number of Aphids/Plant, Alate (Aphid Aphis gossypii [2]; Cyantraniliprole 200 gai/hl): 16
Average Number of Aphids/Plant, Apterous (Aphid Aphis gossypii [2]; Cyantraniliprole 200 gai/hl): 179

CN1COCN(Cc2cnc(Cl)s2)/C1=N\[N+](=O)[O-] [Thiamethoxam, thiamethoxam]
Number of Infested Plants (out of 60) [1, 16]: 1
Average Number of Aphids per Plant [1, 16]: 0.05
Number of Infested Plants (out of 60) [1, 17]: 3
Average Number of Aphids per Plant [1, 17]: 0.12
Number of Infested Plants (out of 60) [1, 18]: 15
Average Number of Aphids per Plant [1, 18]: 1
Number of Infested Plants (out of 60) [1, 19]: 22
Average Number of Aphids per Plant [1, 19]: 2.25
Average Number of Aphids per Plant (Aphid Aphis gossypii [3]; [20]): 41
average number of aphids per plant observed across all days monitored (Aphid Aphis gossypii [3]; Thiamethoxam 30 gai/hl): 25
Average Number of Aphids per Plant (Aphid Aphis gossypii [3]; [21]): 20
Average Number of Aphids per Plant (Aphid Aphis gossypii [3]; [22]): 23
Average Number of Aphids per Plant (Aphid Aphis gossypii [3]; [17]): 26
Average Number of Aphids per Plant (Aphid Aphis gossypii [3]; [23]): 33
Average Number of Aphids per Plant (Aphid Aphis gossypii [3]; [24]): 20
Average Number of Aphids per Plant (Aphid Aphis gossypii [3]; [25]): 10
Average Number of Thrips per Plant (Thrips Thrips Tabaci; [20]): 31
average number of thrips per plant observed across all days monitored (Thrips Thrips Tabaci; Thiamethoxam 30 gai/hl): 28
Average Number of Thrips per Plant (Thrips Thrips Tabaci; [21]): 17
Average Number of Thrips per Plant (Thrips Thrips Tabaci; [22]): 27
Average Number of Thrips per Plant (Thrips Thrips Tabaci; [17]): 15
Average Number of Thrips per Plant (Thrips Thrips Tabaci; [23]): 27
Average Number of Thrips per Plant (Thrips Thrips Tabaci; [24]): 52
Average Number of Thrips per Plant (Thrips Thrips Tabaci; [25]): 29
Average Number of Aphids per Plant ([5]; Thiamethoxam at 25 gai/hl, Day 3 after treatment): 0.063
Average Number of Aphids per Plant ([5]; Thiamethoxam at 25 gai/hl, Day 7 after treatment): 0.788
Average Number of Aphids per Plant ([5]; Thiamethoxam at 25 gai/hl, Day 10 after treatment): 4.813

abamectin
% pest control versus untreated check ([4]; Abamectin 0.45 gai/hl): 41.22%
% pest control versus untreated check ([4]; Abamectin 0.9 g active ingredient/hl): 56.56%
